According to article PMC6934184, “Selective DNA-PKcs inhibition extends the therapeutic index of localized radiotherapy and chemotherapy” (The Journal of Clinical Investigation, 2019):

Biological target: T1, ICK (Homo sapiens, UniProt Q9UPZ9)
T1 construct: purchased Thermo Fisher Scientific (Life Technologies) SelectScreen
Test: SelectScreen LanthaScreen
Assay type: binding
Settings: read-out: % displacement
Procedure, shortened: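 NU5455 was profiled across the SelectScreen Broad panel of kinase activity and binding assays. Z'LYTE reactions such as CSF1R ran at apparent Km ATP, while the Adapta CAMK1 assay used ATP listed as 10. Values are given as percent.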

T1 sequence (Q9UPZ9 whole entry): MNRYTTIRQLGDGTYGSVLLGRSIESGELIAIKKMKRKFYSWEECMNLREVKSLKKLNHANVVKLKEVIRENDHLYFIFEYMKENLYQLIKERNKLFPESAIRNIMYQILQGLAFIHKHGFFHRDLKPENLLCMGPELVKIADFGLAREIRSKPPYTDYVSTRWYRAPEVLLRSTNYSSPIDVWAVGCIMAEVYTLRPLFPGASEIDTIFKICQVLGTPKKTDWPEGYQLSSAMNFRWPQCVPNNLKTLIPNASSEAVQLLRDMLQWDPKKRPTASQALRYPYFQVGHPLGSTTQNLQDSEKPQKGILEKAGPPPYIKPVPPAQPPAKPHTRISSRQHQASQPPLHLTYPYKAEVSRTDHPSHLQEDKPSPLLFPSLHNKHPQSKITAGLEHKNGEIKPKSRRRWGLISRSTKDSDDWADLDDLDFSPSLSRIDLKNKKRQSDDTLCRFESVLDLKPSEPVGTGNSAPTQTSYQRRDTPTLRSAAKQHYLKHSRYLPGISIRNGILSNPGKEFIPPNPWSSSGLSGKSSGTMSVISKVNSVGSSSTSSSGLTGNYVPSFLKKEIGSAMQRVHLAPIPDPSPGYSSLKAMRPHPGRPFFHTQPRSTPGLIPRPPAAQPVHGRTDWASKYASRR

CN(C(=O)CN1CCOCC1)c1ccc2sc3c(-c4cccc5c(=O)cc(N6CC7CCC(C6)O7)oc45)cccc3c2c1 [NU5455] showed an inhibition at 1 µM of 0%.
